Experimental data taken from patent US10538498B2, “1,3,4-oxadiazole sulfonamide derivative compounds as histone deacetylase 6 inhibitor, and the pharmaceutical composition comprising the same” (Chong Kun Dang Pharmaceutical Corp., priority 2015, dated 2020).

Biological target: T1, human recombinant HDAC6 (Homo sapiens, UniProt Q9UBN7)
T1 construct: purchased Calbiochem 382180
T1 sequence (Q9UBN7 1-1215): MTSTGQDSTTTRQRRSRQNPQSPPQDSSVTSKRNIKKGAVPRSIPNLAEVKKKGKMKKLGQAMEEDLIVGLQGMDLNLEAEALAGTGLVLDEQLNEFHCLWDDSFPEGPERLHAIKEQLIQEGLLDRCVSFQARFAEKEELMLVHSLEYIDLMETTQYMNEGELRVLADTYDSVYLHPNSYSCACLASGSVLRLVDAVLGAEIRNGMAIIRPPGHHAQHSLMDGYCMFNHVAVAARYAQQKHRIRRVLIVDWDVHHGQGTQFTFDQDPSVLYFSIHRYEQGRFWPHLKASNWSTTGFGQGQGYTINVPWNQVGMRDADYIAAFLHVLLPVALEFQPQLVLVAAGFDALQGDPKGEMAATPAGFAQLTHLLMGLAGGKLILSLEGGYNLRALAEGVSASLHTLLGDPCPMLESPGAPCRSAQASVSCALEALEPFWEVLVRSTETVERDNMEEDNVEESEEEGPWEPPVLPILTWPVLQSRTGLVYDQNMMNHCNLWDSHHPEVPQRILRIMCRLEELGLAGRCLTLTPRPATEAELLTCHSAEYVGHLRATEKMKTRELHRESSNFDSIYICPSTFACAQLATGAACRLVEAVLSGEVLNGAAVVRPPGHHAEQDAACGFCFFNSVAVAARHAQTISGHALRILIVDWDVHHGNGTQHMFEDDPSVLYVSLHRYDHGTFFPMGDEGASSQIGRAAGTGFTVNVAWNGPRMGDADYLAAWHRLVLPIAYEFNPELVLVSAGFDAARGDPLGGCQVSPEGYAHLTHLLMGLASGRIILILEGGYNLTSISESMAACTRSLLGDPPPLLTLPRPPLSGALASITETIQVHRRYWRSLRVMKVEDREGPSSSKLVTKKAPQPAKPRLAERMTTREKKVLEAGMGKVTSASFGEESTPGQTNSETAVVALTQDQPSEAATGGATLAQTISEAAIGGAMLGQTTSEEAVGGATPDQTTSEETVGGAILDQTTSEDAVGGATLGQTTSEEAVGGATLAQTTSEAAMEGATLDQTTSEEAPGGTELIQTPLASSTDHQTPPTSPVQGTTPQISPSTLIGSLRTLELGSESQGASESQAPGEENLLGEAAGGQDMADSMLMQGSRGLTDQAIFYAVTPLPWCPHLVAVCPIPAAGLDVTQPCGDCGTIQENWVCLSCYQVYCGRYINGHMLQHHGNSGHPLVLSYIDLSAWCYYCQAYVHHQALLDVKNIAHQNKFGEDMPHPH
Test: HDAC6 enzyme activity inhibition assay (HDAC Fluorimetric Drug Discovery Kit)
Type: biochemical
Details: for HDAC6 selectivity (fold): HDAC1 vs HDAC6; for IC50: same protocol as the HDAC1 enzyme activity test
Protocol: In order to examine the HDAC6 selectivity of the compounds of formula I of the present invention by HDAC1 and HDAC6 enzymatic activity inhibition assays, an experiment was performed using a conventional substance as a control.
HDAC enzyme activity was measured using a HDAC Fluorimetric Drug Discovery Kit (BML-AK511, 516, Enzo Life Science). For the HDAC1 enzyme activity test, human recombinant HDAC1 (BML-SE456) was used as an enzyme source, and Fluor de Lys®-“SIRT1 (BNL-KI177) was used as a substrate. A 5-fold dilution of the compound was seeded into a 96-well plate, and then 0.3 μg of the enzyme and 10 μM of the substrate were added to each well of the plate and allowed to react at 30° C. for 60 minutes. Then, Fluor de Lys®-Developer II (BML-KI176) was added thereto and allowed to react for 30 minutes, after which the fluorescence value (Ex 360, Em 460) was measured using a multi-plate reader (Flexstation 3, Molecular Device). The HDAC6 enzyme was tested using human recombinant HDAC6 (382180) (Calbiochem) according to the same protocol as the HDAC1 enzyme activity test method. Based on the resulting values, each IC50 value was calculated using GraphPad Prism4.0 program.

| Structure (SMILES) | HDAC6 selectivity (fold) | IC50 [µM] |
| --- | --- | --- |
| CS(=O)(=O)N(Cc1ccc(-c2nnc(C(F)F)o2)cc1)c1ccc(Cl)cn1 [Compound 11348] | 758 | 0.132 |
| O=S(=O)(CCN1CC[C@H](F)C1)N(Cc1ccc(-c2nnc(C(F)F)o2)cc1)c1ccccc1 [Compound 11795, (S)—N-(4-(5-(difluoromethyl)-1,3,4-oxadiazol-2-yl)benzyl)-2-(3-fluoropyrrolidin-1-yl)-N-phenylethane-1-sulfonamide] | 1466 | 0.0682 |
| NC(=O)[C@@H]1CCCN1CCS(=O)(=O)N(Cc1ccc(-c2nnc(C(F)F)o2)cc1)c1ccccc1 [Compound 11812, (S)-1-(2-(N-(4-(5-(difluoromethyl)-1,3,4-oxadiazol-2-yl)benzyl)-N-phenylsulfamoyl)ethyl)pyrrolidine-2-carboxamide] | 3039 | 0.0329 |
| CS(=O)(=O)N(Cc1ccc(-c2nnc(C(F)F)o2)cc1F)[C@H]1CCc2ccccc21 [Compound 11749, (S)—N-(4-(5-(difluoromethyl)-1,3,4-oxadiazol-2-yl)-2-fluorobenzyl)-N-(2,3-dihydro-1H-inden-1-yl)methanesulfonamide] | 255 | 0.391 |
| COc1ccc(N(Cc2ccc(-c3nnc(C(F)F)o3)cn2)S(C)(=O)=O)cc1 [Compound 11346, N-((5-(5-(difluoromethyl)-1,3,4-oxadiazol-2-yl)pyridin-2-yl)methyl)-N-(4-methoxyphenyl)methanesulfonamide] | 4348 | 0.023 |
| CCN(CC)CCS(=O)(=O)N(Cc1ccc(-c2nnc(C(F)F)o2)cc1)c1ccccc1 [Compound 11798, 2-(diethylamino)-N-(4-(5-(difluoromethyl)-1,3,4-oxadiazol-2-yl)benzyl)-N-phenylethane-1-sulfonamide] | 538 | 0.186 |
| O=S(=O)(C1CCOCC1)N(Cc1ccc(-c2nnc(C(F)F)o2)cn1)c1ccccc1 [Compound 11390, N-((5-(5-(difluoromethyl)-1,3,4-oxadiazol-2-yl)pyridin-2-yl)methyl)-N-phenyltetrahydro-2H-pyran-4-sulfonamide] | 7692 | 0.013 |
| CS(=O)(=O)N(Cc1ccc(-c2nnc(C(F)F)o2)cc1)Cc1ccc(-c2nnc(C(F)F)o2)cc1 [Compound 11186, N,N-bis(4-(5-(difluoromethyl)-1,3,4-oxadiazol-2-yl)benzyl)methanesulfonamide] | 433 | 0.231 |
| O=S(=O)(c1cccnc1)N(Cc1ccc(-c2nnc(C(F)F)o2)cc1F)c1ccccc1 [Compound 11252, N-(4-(5-(difluoromethyl)-1,3,4-oxadiazol-2-yl)-2-fluorobenzyl)-N-phenylpyridine-3-sulfonamide] | 2564 | 0.039 |
| O=C(CO)N1CC(N2CCC(S(=O)(=O)N(Cc3ccc(-c4nnc(C(F)F)o4)cc3)c3cccc(Cl)c3)CC2)C1 [Compound 11836, N-(3-chlorophenyl)-N-(4-(5-(difluoromethyl)-1,3,4-oxadiazol-2-yl)benzyl)-1-(1-(2-hydroxyacetyl)azetidin-3-yl)piperidine-4-sulfonamide] | 3147 | 0.0318 |
| O=S(=O)(CCN1CCN(c2ccncc2)CC1)N(Cc1ccc(-c2nnc(C(F)F)o2)cc1)c1ccccc1 [Compound 11768, N-(4-(5-(difluoromethyl)-1,3,4-oxadiazol-2-yl)benzyl)-N-phenyl-2-(4-(pyridin-4-yl)piperazin-1-yl)ethane-1-sulfonamide] | 2610 | 0.0383 |
| CN1Cc2ccc(N(Cc3ccc(-c4nnc(C(F)F)o4)cc3)S(C)(=O)=O)cc2C1 [Compound 11729, N-(4-(5-(difluoromethyl)-1,3,4-oxadiazol-2-yl)benzyl)-N-(2-methylisoindolin-5-yl)methanesulfonamide] | 56 | 1.76 |
| CN1CCCN(CCS(=O)(=O)N(Cc2ccc(-c3nnc(C(F)F)o3)cc2)c2ccccc2)CC1 [Compound 11737, N-(4-(5-(difluoromethyl)-1,3,4-oxadiazol-2-yl)benzyl)-2-(4-methyl-1,4-diazepan-1-yl)-N-phenylethanesulfonamide] | 1440 | 0.0694 |
| CS(=O)(=O)N(Cc1ccc(-c2nnc(C(F)F)o2)cc1F)c1cccc(F)c1 [Compound 11182, N-(4-(5-(difluoromethyl)-1,3,4-oxadiazol-2-yl)-2-fluorobenzyl)-N-(3-fluorophenyl)methanesulfonamide] | 5882 | 0.017 |
| O=S1(=O)CCC(S(=O)(=O)N(Cc2ccc(-c3nnc(C(F)(F)F)o3)cc2F)c2cccc(F)c2)CC1 [Compound 11255, N-(2-fluoro-4-(5-(trifluoromethyl)-1,3,4-oxadiazol-2-yl)benzyl)-N-(3-fluorophenyl)tetrahydro-2H-thiopyran-4-sulfonamide 1,1-dioxide] | 2128 | 0.047 |
| CS(=O)(=O)N(Cc1ccc(-c2nnc(C(F)F)o2)cc1)c1ccccc1 [Compound 11168, N-(4-(5-(difluoromethyl)-1,3,4-oxadiazol-2-yl)benzyl)-N-phenylmethanesulfonamide] | 4348 | 0.023 |
| CN1Cc2ccc(N(Cc3ccc(-c4nnc(C(F)F)o4)cn3)S(C)(=O)=O)cc2C1 [Compound 11733, N-((5-(5-(difluoromethyl)-1,3,4-oxadiazol-2-yl)pyridin-2-yl)methyl)-N-(2-methylisoindolin-5-yl)methanesulfonamide] | 203 | 0.49 |
| O=S(=O)(CCN1CCC[C@H](O)C1)N(Cc1ccc(-c2nnc(C(F)F)o2)cc1)c1ccccc1 [Compound 11817, (S)—N-(4-(5-(difluoromethyl)-1,3,4-oxadiazol-2-yl)benzyl)-2-(3-hydroxypiperidin-1-yl)-N-phenylethane-1-sulfonamide] | 1718 | 0.0582 |
| O=S(=O)(CCN1CC(O)C1)N(Cc1ccc(-c2nnc(C(F)F)o2)cc1)c1ccccc1 [Compound 11799, N-(4-(5-(difluoromethyl)-1,3,4-oxadiazol-2-yl)benzyl)-2-(3-hydroxyazetidine-1-yl)-N-phenylethane-1-sulfonamide] | 516 | 0.194 |
| CS(=O)(=O)NCc1ccc(-c2nnc(C(F)(F)F)o2)cc1 [Compound 11121, N-(4-(5-(trifluoromethyl)-1,3,4-oxadiazol-2-yl)benzyl)methanesulfonamide] | 39 | 2.54 |
| CS(=O)(=O)N(Cc1ccc(-c2nnc(C(F)F)o2)cc1)c1ccc2c(c1)CN(C1COC1)C2 [Compound 11731, N-(4-(5-(difluoromethyl)-1,3,4-oxadiazol-2-yl)benzyl)-N-(2-(oxetan-3-yl)isoindolin-5-yl)methanesulfonamide] | 57 | 1.75 |
| CS(=O)(=O)N(Cc1ccc(-c2nnc(C(F)F)o2)cn1)c1cccc(Cl)c1 [Compound 11352, N-(3-chlorophenyl)-N-((5-(5-(difluoromethyl)-1,3,4-oxadiazol-2-yl)pyridin-2-yl)methyl)methanesulfonamide] | 12500 | 0.008 |
